Here are results for two molecules from patent US8530172B2, “Methods and materials for assessing enzyme-nucleic acid complexes” (Mayo Foundation for Medical Education and Research, priority 2010, dated 2013).

Test [1] concerns the target T1, topo I-DNA covalent complexes (Homo sapiens, UniProt P11387).
T1 construct: separate topo I-DNA covalent complexes from free topo I in A549 cell lysates; endogenous in cells; host or cells: A549
T1 sequence (P11387 1-765): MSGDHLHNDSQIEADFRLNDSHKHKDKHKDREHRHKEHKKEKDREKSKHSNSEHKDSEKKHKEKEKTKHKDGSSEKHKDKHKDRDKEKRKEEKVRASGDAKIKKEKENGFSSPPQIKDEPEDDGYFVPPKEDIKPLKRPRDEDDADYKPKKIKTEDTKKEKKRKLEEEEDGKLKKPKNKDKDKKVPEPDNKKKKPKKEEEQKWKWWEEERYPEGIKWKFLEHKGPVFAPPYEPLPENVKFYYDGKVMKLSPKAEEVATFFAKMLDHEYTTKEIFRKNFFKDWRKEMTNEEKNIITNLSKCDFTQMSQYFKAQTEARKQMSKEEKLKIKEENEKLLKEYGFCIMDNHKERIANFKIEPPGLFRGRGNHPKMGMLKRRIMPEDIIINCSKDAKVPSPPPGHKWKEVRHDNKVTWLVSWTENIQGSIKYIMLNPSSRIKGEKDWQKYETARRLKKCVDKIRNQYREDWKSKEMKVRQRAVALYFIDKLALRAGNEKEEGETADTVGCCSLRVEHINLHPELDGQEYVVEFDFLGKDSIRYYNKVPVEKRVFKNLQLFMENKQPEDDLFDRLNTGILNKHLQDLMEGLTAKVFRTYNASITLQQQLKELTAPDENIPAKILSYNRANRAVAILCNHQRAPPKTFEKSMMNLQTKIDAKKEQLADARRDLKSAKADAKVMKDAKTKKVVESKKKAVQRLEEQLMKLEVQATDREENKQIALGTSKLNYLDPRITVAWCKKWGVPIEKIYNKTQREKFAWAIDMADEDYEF
Description: In vivo complexing of enzyme (ICE) assay with immunoblotting, A549 cells. Type of test: cell-based. As to conditions: 10 μM drug, 60 minutes. As for the experimental part: ICE assays were performed as described elsewhere (Subramanian et al., ICE Bioassay; DNA Topoisomerase Protocols: Volume II: Enzymology and Drugs, 2001, pp 137-147; and Gálvez-Peralta et al., Bioorganic & Medicinal Chemistry Letters, 19:4459-4462 (2009)). Briefly, A549 cells grown to 40-60% confluence in 100 mm tissue culture dishes were treated for 60 minutes with 0.1% (v/v) DMSO, 10 μM TPT, or 10 μM etoposide in serum-free RPMI containing 10 mM HEPES, pH 7.4 (medium B). At the end of the incubation, the medium was aspirated, and the cells were rapidly lysed in 1 mL lysis buffer consisting of 1% (w/v) sarkosyl, 10 mM Tris-HCl (pH 8.0 at 20-22° C.) and 1 mM EDTA. Lysate was layered on a cesium chloride gradient and ultracentrifuged at 125,000 g for 21 hours at 20° C. After centrifuge tubes were perforated at the bottom with a 23-gauge needle, 0.5 mL fractions were collected, assayed for the presence of DNA (detectable in fractions 1-4), and slot-blotted onto nitrocellulose membranes. Membranes were then blocked in 5% (w/v) milk in […] NaCl containing 10 mM Tris-HCl (pH 7.4 at 20-22° C.) for 2 hours and incubated in either C-21 anti-topo I IgM antibody (obtained from Y.-C. Cheng; Yale University; New Haven, Conn.) or the α-TopoI cc antibody (diluted to 1 μg/mL in blocking buffer). Western blotting was performed as described elsewhere (Kaufmann, Anal. Biochem., 296:283-286 (2001)).
Background: In western blotting, separated proteins are transferred to a membrane and probed.

The target of test [2] is T1, topo I-DNA covalent complexes. Description: Band depletion assay, A549 cells (SDS-PAGE immunoblot and slot blot). Type of test: cell-based. As to conditions: increasing TPT concentrations up to 100 μM, 60 minutes. The method, then:
Band depletion assays were performed as described elsewhere (Kaufmann and […], Methods Mol. Biol., 94:253-268 (1999)). A549 cells grown in 100 mm culture dishes to 40-60% confluence were treated with increasing concentrations of TPT in medium B for 60 minutes. After treatment, cells were immediately solubilized in 6 M guanidine hydrochloride containing 250 mM Tris-HCl (pH 8.5 at 20° C.), 10 mM EDTA, 1% (v/v) 2-mercaptoethanol, and 1 mM freshly added phenylmethylsulfonyl fluoride. After preparation, for electrophoresis as described elsewhere (Kaufmann et al., Blood, 89:2098-2104 (1997), aliquots containing […] of protein (determined by the bicinchoninic acid method (Smith et al., Anal. Biochem., 150:76-85 (1985)) were either slot blotted for immunoblotting with α-TopoI cc antibody or separated on SDS-polyacrylamide gels, eletrophoretically transferred to nitrocellulose, and probed with C-21 anti-Topo I or, as a loading control anti-Hsp90 mouse (obtained from D. O. Toft; Mayo Clinic; Rochester, Minn.).

For test [3] the target is unchanged. As to the kind of experiment: Immunofluorescence (confocal microscopy) in A549 cells. Format: cell-based. The method, then: Immunofluorescence studies in A549 cells were performed as described elsewhere (Segovis et al., J. Immunol., 182:6933-6942 (2009)) with several modifications. After cells grown on nitric acid-etched coverslips were treated for 1 hour with TPT in medium B, coverslips were fixed in 2% (w/v) paraformaldehyde in calcium- and magnesium-free Dulbecco's phosphate buffered saline (PBS) for 10 minutes at room temperature, washed with PBS, and permeabilized with 0.25% (v/v) Triton X-100 in PBS for 5 minutes. To denature DNA-protein crosslinks, the coverslips were incubated in 1% SDS for 5 minutes (Brown et al., Histochem. Cell Biol., 105:261-267 (1996)), washed three times with PBS, and incubated in a blocking buffer consisting of PBS, 1% (v/v) glycerol, 0.1% glycerol from cold water fish, 5% (v/v) normal goat serum, 0.1% (w/v) BSA, and 0.4% (w/v) sodium azide. Coverslips were incubated overnight in primary antibody, followed by staining with Alexa Fluor 488-, 568-, or 647-conjugated secondary antibody (Invitrogen) diluted at a ratio of 1:1000. α-TopoI cc antibody was used at 1.2 μg/mL, and α-Topo I human IgG (Topogen; Port Orange, Fla.) was used at 1:1000. […] Quantitation and image processing were performed using the Zeiss Zen software package and Adobe Photoshop CS3.

Test [4] deals with T2, topo I-DNA covalent complexes (Mus musculus, UniProt Q04750).
T2 construct: endogenous in cells; host or cells: P388 (wild type)
T2 sequence (Q04750 1-767): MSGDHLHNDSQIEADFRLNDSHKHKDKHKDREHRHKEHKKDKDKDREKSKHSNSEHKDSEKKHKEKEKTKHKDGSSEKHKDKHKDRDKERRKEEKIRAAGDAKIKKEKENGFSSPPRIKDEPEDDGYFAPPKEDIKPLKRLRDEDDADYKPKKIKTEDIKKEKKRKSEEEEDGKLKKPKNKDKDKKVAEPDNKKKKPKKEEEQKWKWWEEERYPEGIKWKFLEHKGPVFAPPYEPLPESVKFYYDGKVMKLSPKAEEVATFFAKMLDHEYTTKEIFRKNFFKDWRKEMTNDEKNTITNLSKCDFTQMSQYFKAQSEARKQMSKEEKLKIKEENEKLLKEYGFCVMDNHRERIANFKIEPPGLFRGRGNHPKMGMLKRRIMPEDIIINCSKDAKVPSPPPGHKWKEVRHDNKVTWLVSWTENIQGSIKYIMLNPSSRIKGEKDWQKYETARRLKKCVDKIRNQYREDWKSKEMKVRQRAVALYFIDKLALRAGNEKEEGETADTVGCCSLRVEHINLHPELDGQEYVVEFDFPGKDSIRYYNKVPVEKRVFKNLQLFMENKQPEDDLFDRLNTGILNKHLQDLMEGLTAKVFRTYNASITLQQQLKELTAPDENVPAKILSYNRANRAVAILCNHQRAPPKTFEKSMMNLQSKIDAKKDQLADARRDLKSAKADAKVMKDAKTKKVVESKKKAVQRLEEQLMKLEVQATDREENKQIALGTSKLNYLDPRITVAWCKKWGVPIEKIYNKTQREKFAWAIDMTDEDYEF
Description: Flow cytometry, wild-type P388 cells. As to conditions: 2 μM TPT. Format: cell-based. The method, then: (§1) A549 and K562 cells were stained using a modified protocol of a protocol described elsewhere (Muslimovic et al., Nat. Protoc., 3:1187-1193 (2008)). After 10^6 cells were treated for 1 hour with TPT in medium B, samples were centrifuged at 300 g for 5 minutes. Cells were then partially lysed for 1 minute in 100 μL extraction buffer, which consisted of 25 mM Tris-HCl (pH 7.5 at 20-22° C.), 1% (w/v) Triton X-100, 1 mM EDTA, 0.01% (w/v) BSA, and 0.2% (w/v) paraformaldehyde then fixed for 10 minutes at 20-22° C. by addition of 1 mL 2% (w/v) paraformaldehyde in PBS. Nuclei were pelleted and incubated for 60 minutes in 100 μL blocking buffer with primary antibody (1 μg/mL for A549 and P388 cells; and 5 μg/mL for K562 cells). Nuclei were washed by addition of 2 mL PBS, pelleted, and incubated for 30 minutes in 100 μL blocking buffer with 1 μg/mL Alexa Fluor 647-conjugated goat anti-mouse IgG (Invitrogen). Nuclei were washed by addition of 2 mL PBS, pelleted, and immediately analyzed on a FACSCanto II flow cytometer (BD Biosciences; San Jose, Calif.) on the APC channel (excitation: 633 nm; emission: 660/20 nm).
(Flow cytometry measures light scatter and fluorescence of single cells or particles in a stream.)

Test [5] deals with topo I-DNA covalent complexes. Description: Flow cytometry, P388/CPT cells (lack detectable topo I). Type of test: cell-based, mouse. As to conditions: 2 μM TPT. The method, then:
as §1

As to `COc1cc([C@@H]2c3cc4c(cc3[C@@H](O[C@@H]3O[C@@H]5CO[C@@H](C)O[C@H]5[C@H](O)[C@H]3O)[C@H]3COC(=O)[C@H]23)OCO4)cc(OC)c1O` [etoposide], the “topo I-DNA covalent complexes in DNA fractions after drug exposure (α-TopoI cc blot)” value in test [1] is reported as “failed to detect”.
On to `CC[C@@]1(O)C(=O)OCc2c1cc1n(c2=O)Cc2cc3c(CN(C)C)c(O)ccc3nc2-1` [TPT, Topotecan], for which the “topo I-DNA covalent complexes in DNA fractions after drug exposure (α-TopoI cc blot)” value in test [1] was “detected topo I that co-migrates with DNA”. Further, in test [2], the “topo I-DNA covalent complex signal (slot blot probed with α-TopoI cc)” value was “corresponding increase in signal for topo I-DNA covalent complexes” and the “total topo I signal at 100 kDa (SDS-PAGE, immunoblot)” value is reported as “graduated decrease in the topo I signal at 100 kDa”. In addition, in test [3] (TPT 1 hour), the “α-TopoI cc staining intensity (average number of foci per cell or maximal mean fluorescence)” value is given as “dose-dependent increase”. In addition, in test [3] (TPT versus untreated), the “non-nucleolar staining of topo I-DNA complexes (double staining)” value was “dramatic increase in non-nucleolar staining of topo I-DNA complexes”. In test [4], the “shift in α-TopoI cc staining intensity” value is on record as “rightward shift was detectable”. For the same molecule, the “shift in α-TopoI cc staining intensity” value in test [5] was “this shift was not observed”.
